Test results reported in patent US20240116875A1, “RATIONAL DESIGN, OPTIMIZATION, AND BIOLOGICAL EVALUATION OF NOVEL MEK4 INHIBITORS AGAINST PANCREATIC ADENOCARCINOMA” (NORTHWESTERN UNIVERSITY, priority 2022, published 2024).
Entries after “also recorded” stand apart in the source; their conditions may differ. Where two headings read alike, the source gives them in different places.

How the values were obtained:
Cot = Cot (Homo sapiens, UniProt P41279); details: cited from earlier work
CYP 2C9 = CYP 2C9 (Homo sapiens, UniProt P11712); experiment: CYP inhibition, 2C9
CYP 2C9, sequence (P11712 whole entry): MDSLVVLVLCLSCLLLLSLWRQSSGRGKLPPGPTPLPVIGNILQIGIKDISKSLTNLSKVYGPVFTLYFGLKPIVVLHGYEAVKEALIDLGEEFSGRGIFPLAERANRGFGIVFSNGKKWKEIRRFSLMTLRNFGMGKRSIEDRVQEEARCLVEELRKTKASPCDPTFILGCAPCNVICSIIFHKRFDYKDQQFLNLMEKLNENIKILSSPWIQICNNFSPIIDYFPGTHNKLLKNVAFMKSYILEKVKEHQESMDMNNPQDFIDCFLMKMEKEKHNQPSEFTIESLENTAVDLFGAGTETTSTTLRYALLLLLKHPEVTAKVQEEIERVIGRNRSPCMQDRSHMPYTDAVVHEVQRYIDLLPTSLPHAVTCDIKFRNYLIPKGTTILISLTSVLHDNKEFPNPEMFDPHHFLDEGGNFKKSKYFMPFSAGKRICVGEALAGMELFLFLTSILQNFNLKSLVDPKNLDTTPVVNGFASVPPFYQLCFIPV

[1] = system: JNK phosphorylation in HEK293T cells; experiment: anisomycin-induced JNK phosphorylation, western blotting, HEK293T; assay type: cell-based, human; details: anisomycin 45 minutes then compound 5 hours, increasing doses
Procedure: The blots are representative of at least three biological replicates.
(§1) We also examined the effects of these inhibitors on JNK phosphorylation and proliferation of two pancreatic cancer cell lines (CD18 and MiaPaCa2).
(§2) Human pancreatic cancer cell lines (CD18/HPAF-II and MiaPaCa2) and HEK293T cells were obtained from American Type Culture Collection. All cell lines were cultured according to the manufacturer's protocol. All media contained 10% Fetal Bovine Serum (FBS) and antibiotics (100 U/mL Penicillin and 100 μg/mL Streptomycin).
(§3) Whole cell extracts of cultured cells were prepared in radioimmunoprecipitation (RIPA) lysis buffer supplemented with phosphatase and protease inhibitors (Calbiochem). Protein concentration was determined by the bicinchoninic acid assay (BCA) (ThermoFisher) and separated by the SDS-PAGE technique. […] Secondary anti-mouse IgG (A4416) and anti-rabbit IgG (A6667) antibodies were purchased from Sigma-Aldrich and used a 1:4000 dilution. Images of blots were acquired on HyBlot ES Autoradiography Film (Thomas Scientific, Swedesboro, NJ, USA) following incubation with SuperSignal West Pico PLUS (ThermoFisher).

Caco-2 = Caco-2 permeability assay; assay type: in vitro ADME
CYP 2D6 = CYP 2D6 (Homo sapiens, UniProt P10635); experiment: CYP inhibition, 2D6
CYP 2D6, sequence (P10635 whole entry): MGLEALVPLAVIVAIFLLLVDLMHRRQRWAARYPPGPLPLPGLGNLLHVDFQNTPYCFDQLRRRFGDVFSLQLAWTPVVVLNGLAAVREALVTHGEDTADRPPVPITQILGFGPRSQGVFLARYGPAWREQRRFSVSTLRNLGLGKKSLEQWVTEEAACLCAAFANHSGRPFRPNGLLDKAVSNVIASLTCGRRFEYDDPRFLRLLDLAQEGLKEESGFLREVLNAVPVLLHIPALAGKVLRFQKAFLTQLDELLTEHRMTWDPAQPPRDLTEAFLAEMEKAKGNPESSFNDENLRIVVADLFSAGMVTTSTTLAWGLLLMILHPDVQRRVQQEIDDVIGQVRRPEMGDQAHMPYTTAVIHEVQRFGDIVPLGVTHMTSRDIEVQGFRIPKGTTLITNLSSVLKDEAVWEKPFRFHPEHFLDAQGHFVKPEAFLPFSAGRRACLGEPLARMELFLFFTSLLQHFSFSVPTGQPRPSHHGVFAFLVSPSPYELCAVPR

[2] = system: JNK phosphorylation in MiaPaCa2 cells; experiment: anisomycin-induced JNK phosphorylation, western blotting, MiaPaCa2; assay type: cell-based, human; details: MiaPaCa2, anisomycin 45 minutes then compound 5 hours
Procedure: (§4) HSP90 was used as loading control. The blots are representative of at least three biological replicates.
as §1, §2, §3

CD18 cells = experiment: cell proliferation (cell count after 72 hours), CD18; assay type: cell-based, human; details: CD18, 72 hours, varying doses, single agent
Procedure: (§5) After 72 hours, cells were trypsinized, counted, and the cell numbers were normalized against the DMSO treatment. Mean±SD. Graphs are representative of 3 biological replicates.
as §5
(§6) Cell numbers from different treatments were normalized against the DMSO treatment, and CDI is calculated as follows: CDI=AB/(A×B), with AB being the ratio of the combination groups to control group and A or B being the ratio of the single agent group to the DMSO group. Mean±SEM from 3 biological replicates.
as §1, §2

[3] = system: phospho-p42/44 MAPK in HEK293T cells; experiment: p42/44 MAPK (ERK1/2) phosphorylation, western blotting, HEK293T; assay type: cell-based, human; details: anisomycin pretreatment, compound 100 μM, 5 hours
Procedure: as §4
(§7) We next evaluated the effects of our inhibitors on the phosphorylation activity and expression of MEK1/2, MEK3/6, and MEK7. […] We also evaluated the effects on p42/44 MAPK (ERK1/2), which functions downstream of MEK1/2.
as §3

[4] = system: phospho-p38 MAPK in HEK293T cells; experiment: p38 MAPK phosphorylation, western blotting, HEK293T; assay type: cell-based, human; details: anisomycin pretreatment, compound 100 μM, 5 hours
Procedure: as §4, §7, §3

[5] = system: phospho-p42/44 MAPK in CD18 cells; experiment: p42/44 MAPK phosphorylation, western blotting, CD18; assay type: cell-based, human; details: CD18, MEK4 inhibitor 10 μM, 5 hours
Procedure: (§8) The effects of different treatments on phospho-p42/44 MAPK and total p42/44 MAPK expression levels were determined by western blotting. HSP90 was used as loading control. The blots are representative of at least three biological replicates.
as §3

CYP isoforms 3A4/5 = experiment: CYP inhibition, 3A4/5
[6] = PAMPA assay (BioDuro-Sundia); assay type: in vitro ADME
[7] = system: phospho-p42/44 MAPK in MiaPaCa2 cells; experiment: p42/44 MAPK phosphorylation, western blotting, MiaPaCa2; assay type: cell-based, human; details: MiaPaCa2, MEK4 inhibitor 10 μM, 5 hours
Procedure: as §8, §3

CYP 1A2 = CYP 1A2 (Homo sapiens, UniProt P05177)
CYP 1A2, sequence (P05177 whole entry): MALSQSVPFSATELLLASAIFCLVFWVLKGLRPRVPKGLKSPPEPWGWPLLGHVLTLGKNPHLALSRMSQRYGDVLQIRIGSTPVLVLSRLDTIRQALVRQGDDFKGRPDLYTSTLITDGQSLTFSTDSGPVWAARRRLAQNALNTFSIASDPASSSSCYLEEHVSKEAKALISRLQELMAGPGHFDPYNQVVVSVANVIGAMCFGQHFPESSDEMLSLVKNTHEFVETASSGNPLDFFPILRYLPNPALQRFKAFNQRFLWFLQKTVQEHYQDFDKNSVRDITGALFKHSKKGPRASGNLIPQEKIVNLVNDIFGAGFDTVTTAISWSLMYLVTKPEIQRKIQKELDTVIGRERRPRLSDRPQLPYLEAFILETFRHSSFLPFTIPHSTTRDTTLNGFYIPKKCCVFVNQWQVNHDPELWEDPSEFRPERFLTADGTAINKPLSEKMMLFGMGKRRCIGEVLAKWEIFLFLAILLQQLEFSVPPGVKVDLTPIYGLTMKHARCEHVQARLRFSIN

[8] = Log D study (BioDuro-Sundia); details: pH of 7.4
[9] = system: MEK7 expression in HEK293T cells; experiment: MEK7 expression, western blotting, HEK293T; assay type: cell-based, human; details: anisomycin pretreatment, compound 100 μM, 5 hours
Procedure: as §4, §7, §3

MiaPaCa2 cells = experiment: cell proliferation (cell count after 72 hours), MiaPaCa2; assay type: cell-based, human; details: MiaPaCa2, 72 hours, varying doses, single agent
Procedure: as §5, §5, §6, §1, §2

[10] = system: JNK phosphorylation in CD18 cells; experiment: anisomycin-induced JNK phosphorylation, western blotting, CD18; assay type: cell-based, human; details: CD18, anisomycin 45 minutes then compound 5 hours
Procedure: as §4, §1, §2, §3

[11] = liver microsome stability study (BioDuro-Sundia)
HEK293T cells = experiment: cell proliferation (cell count after 72 hours), HEK293T; assay type: cell-based, human; details: varying doses
Procedure: After 72 hours, cells were trypsinized, counted, and the cell numbers were normalized against the DMSO treatment. Mean±SD. Graphs are representative of 3 biological replicates. One-way ANOVA; ns, non-significant **, p<0.01 ***, p<0.001.
as §1, §2

CYP 2C19 = CYP 2C19 (Homo sapiens, UniProt P33261); experiment: CYP inhibition, 2C19
CYP 2C19, sequence (P33261 whole entry): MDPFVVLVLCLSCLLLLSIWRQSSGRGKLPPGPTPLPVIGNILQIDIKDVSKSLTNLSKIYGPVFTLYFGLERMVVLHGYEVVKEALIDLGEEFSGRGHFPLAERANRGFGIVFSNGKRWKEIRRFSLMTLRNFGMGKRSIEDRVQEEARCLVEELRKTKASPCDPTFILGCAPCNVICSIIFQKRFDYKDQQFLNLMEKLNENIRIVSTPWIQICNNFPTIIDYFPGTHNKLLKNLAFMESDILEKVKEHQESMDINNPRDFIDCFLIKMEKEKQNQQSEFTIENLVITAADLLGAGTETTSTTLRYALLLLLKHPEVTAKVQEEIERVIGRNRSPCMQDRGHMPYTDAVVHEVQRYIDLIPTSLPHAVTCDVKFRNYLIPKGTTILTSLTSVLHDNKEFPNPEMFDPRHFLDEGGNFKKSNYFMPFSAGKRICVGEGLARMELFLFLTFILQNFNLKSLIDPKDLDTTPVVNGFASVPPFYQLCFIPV

MEK7 = molecular target: T1, MEK7 (Homo sapiens, UniProt O14733); experiment: ADP-Glo kinase activity assay, MEK7; assay type: biochemical
T1 construct: purchased Carna Biosciences
T1 sequence (O14733 1-419): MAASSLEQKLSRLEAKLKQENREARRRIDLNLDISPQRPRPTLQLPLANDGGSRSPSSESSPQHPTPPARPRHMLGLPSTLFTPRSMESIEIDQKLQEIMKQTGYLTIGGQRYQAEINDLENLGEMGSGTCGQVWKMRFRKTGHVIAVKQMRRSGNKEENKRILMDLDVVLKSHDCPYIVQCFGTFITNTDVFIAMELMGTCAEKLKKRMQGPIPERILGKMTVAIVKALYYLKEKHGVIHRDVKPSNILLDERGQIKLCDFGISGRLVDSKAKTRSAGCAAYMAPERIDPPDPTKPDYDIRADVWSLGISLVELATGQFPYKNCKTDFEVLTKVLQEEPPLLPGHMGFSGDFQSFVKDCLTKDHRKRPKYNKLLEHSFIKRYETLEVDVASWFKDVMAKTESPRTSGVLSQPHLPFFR
Procedure: The compounds were then evaluated both in vitro and in a cellular system. When studying kinase inhibitors, there are a multitude of ways to evaluate selectivity across kinases.
Procedure for a 5 μL Kinase reaction using the ADP-Glo Kinase Assay Kit from Promega. Staurosporine was used as the positive control, and DMSO as the negative control. Activity of recombinant active full-length human MEK4 (Carna Biosciences) was measured using the ADP-Glo assay with recombinant full-length human p38α (MAPK14). Kinase reactions with MEK7 (Carna Biosciences) were done at the same concentration and amounts with recombinant full-length human p38α (MAPK14).
For each well, 4 ng of MEK4 and 600 ng of p38α in Kinase buffer (CST) were used, and 1 μL of this mixture was dispensed per well.
Inhibitor was prepared in a DMSO solution. A dose response dilution was done in a 384-well Echo transfer plate. […] This mixture was allowed to incubate for 30 minutes at room temperature.
Using a Mantis, 1 μL, of an 8 μM ATP solution was added to each well, and the plate was allowed to incubate for another 1 hour at room temperature. […] All experiments were done in triplicate on the plate, and at least in one separate technical duplicate.

Cot, sequence (P41279 whole entry): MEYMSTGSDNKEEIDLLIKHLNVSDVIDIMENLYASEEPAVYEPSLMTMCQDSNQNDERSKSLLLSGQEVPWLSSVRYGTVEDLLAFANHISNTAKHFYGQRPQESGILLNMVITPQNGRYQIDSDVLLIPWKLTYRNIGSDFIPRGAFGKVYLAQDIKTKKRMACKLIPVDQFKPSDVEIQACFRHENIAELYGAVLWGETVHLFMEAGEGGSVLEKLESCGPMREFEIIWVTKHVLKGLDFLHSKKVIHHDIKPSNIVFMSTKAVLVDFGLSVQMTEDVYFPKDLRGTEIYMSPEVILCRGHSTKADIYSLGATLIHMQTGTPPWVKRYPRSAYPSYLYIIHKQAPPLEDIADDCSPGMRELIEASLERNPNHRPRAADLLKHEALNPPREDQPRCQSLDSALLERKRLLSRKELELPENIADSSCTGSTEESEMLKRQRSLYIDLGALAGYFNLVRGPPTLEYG

## O=c1c(-c2ccc(O)c(O)c2)coc2cc(O)ccc12 [THIF, 7,3′,4′-trihydroxyisoflavone]
Cot
  Cot activity (literature): inhibits

## NS(=O)(=O)c1ccc(-c2n[nH]c3cc(F)ccc23)cc1 [Compound 10e, 4-(6-fluoro-1H-indazol-3-yl)benzenesulfonamide]
CYP 2C9
  inhibition of CYP 2C9: avoided inhibiting
[1]
  effect on anisomycin-induced JNK phosphorylation: attenuated anisomycin-induced INK phosphorylation in a dose-dependent manner
Caco-2
  Caco-2 permeability: medium to high permeability
CYP 2D6
  inhibition of CYP 2D6: avoided inhibiting
[2]
  effect on anisomycin-induced JNK phosphorylation: attenuated anisomycin-induced JNK phosphorylation
CD18 cells
  cell proliferation: decreased proliferation; also recorded: antiproliferative properties
[3]
  effect on p42/44 MAPK phosphorylation after anisomycin: reversed the effects of anisomycin
[4]
  effect on anisomycin-induced p38 MAPK phosphorylation: not affected
[5]
  effect on p42/44 MAPK phosphorylation: increased p42/44 MAPK phosphorylation
CYP isoforms 3A4/5
  inhibition of CYP isoforms 3A4/5: did not inhibit
[6]
  permeability in the PAMPA assay: performed slightly better
[7]
  effect on p42/44 MAPK phosphorylation: did not induce p42/44 MAPK phosphorylation
CYP 1A2
  inhibition of CYP 1A2: inhibited
[8]
  log D: 2.80
[9]
  effect on the expression of MEK7: no effect
MiaPaCa2 cells
  cell proliferation: decreased proliferation; also recorded: antiproliferative properties
[10]
  effect on anisomycin-induced JNK phosphorylation: attenuated anisomycin-induced JNK phosphorylation
[11]; liver microsome
  half-life in the microsome assay: 1.9 h
[11]; microsomes
  stability in the microsome assay: good stability
HEK293T cells
  cell proliferation: decreased. HEK293T cell proliferation in a dose-dependent manner
CYP 2C19
  inhibition of CYP 2C19: inhibited
MEK7
  IC50: 0.52 ± 0.67 µM
MEK7; headline value per compound, read-out: MEK7 IC50
  IC50: 0.54 µM
MEK7; individual experiment, values in brackets, n=3, read-out: MEK7 IC50 of each experiment (IC50±SEM)
  IC50: 0.56 ± 0.22 µM
